These are literature values, as cited in patent US20100255080A1, “Liposomal ALA pharmaceutical and cosmeceutical compositions and methods of treatment” (SESVALIA USA, LLC, priority 2009, published 2010).

The conditions of the data set: printed as the pH near the pka.

In the case of `Cl.NCC(=O)CCC(=O)O` [ALA, 5-aminolevulinic acid], the pka entry is recorded as “about 4”.
